Laboratory results as given in patent US7166636B2, “Indole-amid derivatives which possess glycogen phosphorylase inhibitory activity” (AstraZeneca AB, priority 2002, dated 2007).

Key:
conscious dogs = conditions: following a glucagon challenge; cited from earlier work
db/db and ob/ob mice = db/db and ob/ob mice following treatment; cited from earlier work
hepatocytes = conditions: cited from earlier work; for glucose output: glucagon stimulated
[1] = target: T1, Human recombinant liver glycogen phosphorylase a (hrl GPa) (Homo sapiens, UniProt P06737); test: Glycogen phosphorylase a inhibition, glycogen degradation, multienzyme coupled assay (NADH fluorescence); assay type: biochemical; conditions: hrl GPa 20 nM, 6 hours at 30° C.
T1 sequence (P06737 1-847): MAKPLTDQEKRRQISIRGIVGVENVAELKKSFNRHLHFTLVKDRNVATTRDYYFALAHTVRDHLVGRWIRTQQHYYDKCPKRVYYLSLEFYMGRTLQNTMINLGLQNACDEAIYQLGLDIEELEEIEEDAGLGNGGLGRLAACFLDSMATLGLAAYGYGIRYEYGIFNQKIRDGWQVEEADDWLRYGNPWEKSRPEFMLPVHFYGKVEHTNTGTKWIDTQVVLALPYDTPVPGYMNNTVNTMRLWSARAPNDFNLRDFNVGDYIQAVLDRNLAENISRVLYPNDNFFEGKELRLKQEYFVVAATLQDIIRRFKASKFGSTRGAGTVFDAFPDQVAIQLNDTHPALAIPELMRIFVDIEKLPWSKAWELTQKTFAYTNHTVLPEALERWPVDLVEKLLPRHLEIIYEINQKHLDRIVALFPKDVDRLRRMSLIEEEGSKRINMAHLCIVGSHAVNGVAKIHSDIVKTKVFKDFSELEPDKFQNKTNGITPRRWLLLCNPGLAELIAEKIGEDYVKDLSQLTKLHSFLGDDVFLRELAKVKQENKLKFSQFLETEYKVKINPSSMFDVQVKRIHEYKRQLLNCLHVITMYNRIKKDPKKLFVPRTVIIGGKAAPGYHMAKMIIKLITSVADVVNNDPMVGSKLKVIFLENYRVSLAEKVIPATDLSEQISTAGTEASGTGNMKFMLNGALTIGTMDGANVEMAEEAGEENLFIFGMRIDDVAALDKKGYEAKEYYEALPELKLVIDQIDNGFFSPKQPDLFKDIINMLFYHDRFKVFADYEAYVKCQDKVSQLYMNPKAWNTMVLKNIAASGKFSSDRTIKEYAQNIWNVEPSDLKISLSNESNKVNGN
Method: The activity of the compounds is alternatively determined by measuring the inhibitory effect of the compounds on glycogen degradation, the production of glucose-1-phosphate from glycogen is monitored by the multienzyme coupled assay, as described in EP 0 846 464 A2, general method of Pesce et al (Pesce, M A, Bodourian, S H, Harris, R C, and Nicholson, J F (1977) Clinical Chemistry 23, […]). The reactions were in 384 well microplate format in a volume of 50 μl. The change in fluorescence due to the conversion of the co-factor NAD to NADH is measured at 340 nm excitation, 465 nm emission in a Tecan Ultra Multifunctional Microplate Reader. The reaction is in 50 OmM HEPES, 3.5 mM KH2PO4, 2.5 mM MgCl2, 2.5 mM ethylene glycol-bis(b-aminoethyl ether) N,N,N′,N′-tetraacetic acid, 100 mM KCl, 8 mM D-(+)-glucose pH7.2, containing 0.5 mM dithiothreitol, the assay buffer solution. Human recombinant liver glycogen phosphorylase a (hrl GPa) 20 nM is pre-incubated in assay buffer solution with 6.25 mM NAD, 1.25 mg type III glycogen at 1.25 mg ml^−1 the reagent buffer, for 30 minutes. […] The non-inhibited activity of GPa is measured in the presence of 10 μl 5% DMSO in assay buffer solution and maximum inhibition measured in the presence of 5 mgs ml^−1 N-ethylmaleimide. […] Relative Fluoresence Units (RFUs) are measured at 340 nm excitation, 465 nm emission. […]

SMILES	arterial plasma glucose (conscious dogs)	hepatic glucose output (conscious dogs)	plasma glucose concentration (db/db and ob/ob mice)	glucagon stimulated glycogenolysis (hepatocytes)	glucose output (hepatocytes)	IC50 [1]
CCN1C(C)=C(C(=O)OC(C)C)C(c2ccccc2Cl)C2=C1COC2=O (stereo not drawn) [Bay R 3401]	reduced significantly	reduced significantly				
CN(C)C(=O)[C@H](O)[C@H](Cc1ccccc1)NC(=O)c1cc2cc(Cl)ccc2[nH]1 [CP91149]			reduced, in a dose related manner	reduce	reduce	
O=C(N[C@@H](Cc1ccc(F)cc1)C(=O)N1CCC(O)CC1)c1cc2cc(Cl)ccc2[nH]1 [CP320626]			reduced, in a dose related manner	reduce	reduce	
COC(=O)c1ncoc1[C@H](Cc1ccccc1)NC(=O)c1cc2cc(Cl)ccc2[nH]1 [Example 1, Methyl (S)-5-{1-[(5-chloro-1H-indol-2-ylcarbonyl)amino]-2-phenylethyl}oxazole-4-carboxylate]						2400 nM
